Assay results taken from patent US5543425A, “Method of inhibiting platelet aggregation using phenyl amidine thio derivatives” (G. D. Searle & Co., priority 1994, dated 1996).

System: platelet aggregation in dog PRP
Assay: In-Vitro Platelet Aggregation in PRP (collagen-induced)
Format: cell-based
Settings: Canis lupus familiaris; for inhibition at 10 µM: Test Concentration 1 × 10^-5 (10 μM), dog PRP, collagen 33.3 μg/m final; for IC50: dog platelet-rich plasma, collagen-induced aggregation
Experimental: Compounds of the invention were evaluated by an in vitro assay to determine compound activity as an inhibitors of platelet aggregation.
In-Vitro Platelet Aggregation in PRP
Healthy male or female dogs were fasted for 8 hours prior to drawing blood; then 30 ml whole blood from jugular vein was collected using a butterfly needle and 30 ml plastic syringe with 3 ml of 0.129 M buffered sodium citrate (3.8%). The syringe was rotated carefully as blood was drawn to mix the citrate. The whole blood was transferred to a 50 ml Corning Conical sterile centrifuge tube. Platelet-rich plasma (PRP) was prepared by centrifugation at 975×g for 3.17 minutes at room temperature, allowing the centrifuge to coast to a stop without braking. The PRP was removed from the blood with a plastic pipette and placed in a plastic capped, 50 ml Corning conical sterile centrifuge tube which was held at room temperature. Platelet poor plasma (PPP) was prepared by centrifuging the remaining blood at 2000×g for 15 minutes at room temperature allowing the centrifuge to coast to a stop without braking. The PRP platelet count was typically a count of 2.5-4×10^8 platelets per ml. 400 μL of the PRP preparation and 50 μL of the compound to be tested or saline were preincubated for 2 minutes at 37° C. in a BioData aggregometer (BioData, Horsham, PA). 50 μL of Collagen (equine tendon, Chronolog, Hayertown, PA) [33.3 μg/m, final concentration] was added to the cuvettes and the aggregation was monitored for 4 minutes. All compounds are tested in duplicate. Inhibition of aggregation for each sample was determined using the formula: % of inhibition=100-% of control and % of control=(Tinh -Tbas)/(Tag -Tbas) ×100, where Tbas is % of light transmission in PRP (baseline), Tagg is % of light transmission in the aggregated PRP sample (saline control) and Tinh is % of light transmission in the sample containing the inhibitor.

Row | Compound | inhibition at 10 µM [%] | IC50 [nM]
1 | Cc1ccc(S(=O)(=O)CC(CC(=O)O)NC(=O)CCCCc2ccc(C(=N)N)cc2)cc1 (racemic) [(+)-3-[[5-[4-(aminoiminomethyl)phenyl]-1-oxopentyl]amino]-4-[[(4-methylphenyl)sulfonyl]butanoic acid] | 100 | –
2 | CCOC(=O)CC(CC[S+]([O-])Cc1ccccc1)NC(=O)CCCCc1ccc(C(=N)N)cc1 (racemic) [(+)-ethyl 3-[[5-[4-aminoiminomethyl)phenyl]-1-oxopentyl]amino]-5-[(phenylmethyl)sulfinyl]pentanoate] | 100 | 420
3 | N=C(N)c1ccc(CCCCC(=O)NC(CC(=O)O)CS(=O)(=O)c2ccccn2)cc1 (racemic) [(±)-3-[[5-[4-(aminoiminomethyl)phenyl]-1-oxopentyl]amino]-4-(2-pyridinylsulfonyl)butanoic acid] | 100 | –
4 | N=C(N)c1ccc(CCCCC(=O)NC(CC(=O)O)CS(=O)(=O)c2ccccc2)cc1 (racemic) [(±)-3-[[5-[4-(aminoiminomethyl)phenyl]-1-oxopentyl]amino]-4-(phenylsulfonyl)butanoic acid] | 100 | 28
5 | N=C(N)c1ccc(CCCCC(=O)NC(CSc2ccccc2)CC(=O)O)cc1 (racemic) [(±)-3-[[5-[4-(aminoiminomethyl)phenyl]-1-oxopentyl]amino]-4-(phenylthio) butanoic acid] | 100 | 500
6 | N=C(N)c1ccc(CCCCC(=O)NC(CSc2ccc(F)cc2)CC(=O)O)cc1 (racemic) [(±)-3-[[5-[4-(aminoiminomethyl)phenyl]-1-oxopentyl]amino]-4-[(4-fluorophenyl)thio]butanoic acid] | 100 | 1800
7 | COc1ccc(S(=O)(=O)CC(CC(=O)O)NC(=O)CCCCc2ccc(C(=N)N)cc2)cc1 (racemic) [(±)-3-[[5-[4-(aminoiminomethyl)phenyl]-1-oxopentyl]amino]-4-[(4-methoxyphenyl)sulfonyl]butanoic acid] | 100 | 130
8 | N=C(N)c1ccc(CCCCC(=O)NC(CC(=O)O)C[S+]([O-])c2ccccc2)cc1 (racemic) [(±)-3-[[5-[4-(aminoiminomethyl)phenyl]-1-oxopentyl]amino]-4-[(phenylsulfinyl)butanoic acid] | 100 | 200
9 | N=C(N)c1ccc(CCCCC(=O)NC(CC(=O)O)CS(=O)(=O)c2ccc(F)cc2)cc1 (racemic) [(±)-3-[[5-[4-(aminoiminomethyl)phenyl]-1-oxopentyl]amino]-4-[[(4-fluorophenyl)]sulfonyl]butanoic acid] | 100 | 120
10 | C[S+]([O-])CCC(CC(=O)O)NC(=O)CCCCc1ccc(C(=N)N)cc1 (racemic) [(±)-3-[[5-[4-(aminoiminomethyl)phenyl]-1-oxopentyl]amino]-5-(methylsulfinyl) pentanoic acid] | 100 | 1500
11 | CS(=O)(=O)CCC(CC(=O)O)NC(=O)CCCCc1ccc(C(=N)N)cc1 (racemic) [(±)-3-[[5-[4-(aminoiminomethyl)phenyl]-1-oxopentyl]amino]-5-(methylsulfonyl)pentanoic acid] | 100 | 700
12 | CSCCC(CC(=O)O)NC(=O)CCCCc1ccc(C(=N)N)cc1 (racemic) [(±)-3-[[5-[4-(aminoiminomethyl)phenyl]-1-oxopentyl]amino]-5-(methylthio) pentanoic acid] | 100 | 1300
13 | N=C(N)c1ccc(CCCCC(=O)NC(CC[S+]([O-])Cc2ccccc2)CC(=O)O)cc1 (racemic) [(±)-3-[[5-[4-(aminoiminomethyl)phenyl]-1-oxopentyl]amino]-5-[(phenylmethyl)sulfinyl]pentanoic acid] | 100 | 100
14 | N=C(N)c1ccc(CCCCC(=O)NC(CCS(=O)(=O)Cc2ccccc2)CC(=O)O)cc1 (racemic) [(±)-3-[[5-[4-(aminoiminomethyl)phenyl]-1-oxopentyl]amino]-5[(phenylmethyl)sulfonyl]pentanoic acid] | 100 | 220
15 | CCOC(=O)CC(C[S+]([O-])c1ccccc1)NC(=O)CCCCc1ccc(C(=N)N)cc1 (racemic) [(±)-ethyl 3-[[5-[4-(aminoiminomethyl)phenyl]-1-oxopentyl]amino]-4-(4-phenylsulfinyl)butanoate] | 0 | –
16 | CCOC(=O)CC(CS(=O)(=O)c1ccccc1)NC(=O)CCCCc1ccc(C(=N)N)cc1 (racemic) [(±)-ethyl 3-[[5-[4-(aminoiminomethyl)phenyl]-1-oxopentyl]amino]-4-(phenylsulfonyl)butanoate] | 3 | –
17 | CCOC(=O)CC(CSc1ccccc1)NC(=O)CCCCc1ccc(C(=N)N)cc1 (racemic) [(±)-ethyl 3-[[5-[[4-(aminoiminomethyl)phenyl]-1-oxopentyl]amino]-4-(4-phenylthio) butanoate] | 0 | –
18 | CC(C)OC(=O)CC(CS(=O)(=O)c1ccccn1)NC(=O)CCCCc1ccc(C(=N)N)cc1 (stereo not drawn) [1-methylethyl 3S-[[5-[4-(aminoiminomethyl)phenyl]-1-oxopentyl]amino]-4-(2-pyridinylsulfonyl)butanoate] | 28 | –
19 | Cc1ccc([S+]([O-])CCNC(=O)CCCCc2ccc(C(=N)N)cc2)cc1 (centres unmarked) [4-(aminoiminomethyl)-N-[2-[(4-methylphenyl)sulfinyl]ethylbenzenepentanamide] | 0 | –
20 | Cc1ccc(S(=O)(=O)CCNC(=O)CCCCc2ccc(C(=N)N)cc2)cc1 [4-(aminoiminomethyl)-N-[2-[(4-methylphenyl)sulfonyl]ethylbenzenepentanamide] | 23 | –
